ChEMBL document CHEMBL3045481, “Insecticide-induced resurgence of the whitebacked planthopper Sogatella furcifera (Horvath) (Hemiptera: Delphacidae) on rice varieties with different levels of resistance” (Crop Prot, 2011)
Activity calls are given as the source filed them. The calls are words filed in the database; no cut-off is given here.

Legend:
Sogatella furcifera [1] = experiment: Insecticidal activity against Sogatella furcifera on insect-sensitive rice plant ARC6248 assessed as resurgence ratio at 0.100% concentration; format: functional
Sogatella furcifera [2] = experiment: Insecticidal activity against Sogatella furcifera on insect-sensitive rice plant ARC6248 assessed as nymphal survival at 0.0018% concentration (reference value: 34.17%); format: functional
Sogatella furcifera [3] = experiment: Insecticidal activity against Sogatella furcifera on insect-sensitive rice plant ARC6248 assessed as nymphal duration at 0.0018% concentration (reference value: 14.48 days); format: functional
Sogatella furcifera [4] = experiment: Insecticidal activity against Sogatella furcifera on insect-sensitive rice plant ARC6248 assessed as growth index at 0.0018% concentration (reference value: 2.38%); format: functional
Sogatella furcifera [5] = experiment: Insecticidal activity against Sogatella furcifera on insect-sensitive rice plant ARC6248 assessed as reproduction at 0.0018% concentration; format: functional, organism-based
Sogatella furcifera [6] = experiment: Insecticidal activity against Sogatella furcifera on insect-resistanct rice plant PR116 assessed as reproduction at 0.0018% concentration; format: functional, organism-based
Sogatella furcifera [7] = experiment: Insecticidal activity against Sogatella furcifera on insect-resistanct rice plant PR116 assessed as nymphal duration at 0.0018% concentration (reference value: 11.75 days); format: functional
Sogatella furcifera [8] = experiment: Insecticidal activity against Sogatella furcifera on insect-resistanct rice plant PR116 assessed as nymphal survival at 0.0018% concentration (reference value: 70.28%); format: functional
Sogatella furcifera [9] = experiment: Insecticidal activity against adult Sogatella furcifera on insect-sensitive rice plant ARC6248 assessed as high mortality at 0.0035% concentration; format: functional, organism-based
Sogatella furcifera [10] = experiment: Insecticidal activity against Sogatella furcifera on insect-resistanct rice plant PR116 assessed as growth index at 0.0018% concentration (reference value: 6.02%); format: functional
Sogatella furcifera [11] = experiment: Insecticidal activity against Sogatella furcifera on insect-resistanct rice plant PR116 assessed as resurgence ratio at 0.100% concentration; format: functional
Sogatella furcifera [12] = experiment: Insecticidal activity against adult Sogatella furcifera on insect-resistanct rice plant PR116 assessed as high mortality at 0.0035% concentration; format: functional, organism-based

O=[N+]([O-])/N=C1\NCCN1Cc1ccc(Cl)nc1 [IMIDACLOPRID] showed a Ratio (Sogatella furcifera [1]) of under 1, a Survival (Sogatella furcifera [2]) of 35.56% and a Time (Sogatella furcifera [3]) of 14.46 days. The “growth inhibition (GI)” value (Sogatella furcifera [4]) was 2.48%, the inhibition (Sogatella furcifera [5]) was “inactive” and the inhibition (Sogatella furcifera [6]) was “inactive”. The Time (Sogatella furcifera [7]) was 11.85 days, the Survival (Sogatella furcifera [8]) was 69.72% and the inhibition (Sogatella furcifera [9]) was “Active”. The “growth inhibition (GI)” value (Sogatella furcifera [10]) was 5.91%, the Ratio (Sogatella furcifera [11]) was under 1 and the inhibition (Sogatella furcifera [12]) was “Active”.
